Measurements: patent US20220132852A1, “PESTICIDALLY ACTIVE HETEROCYCLIC DERIVATIVES WITH SULFUR CONTAINING SUBSTITUENTS” (SYNGENTA CROP PROTECTION AG, priority 2019, published 2022)

Key:
[1] = tested on: Diabrotica balteata (Corn Root Worm); assay: Example B1: Activity against Diabrotica balteata (corn root worm), sprayed maize sprouts; format: in vivo; conditions: 96 h, application rate 200 ppm, L2 larvae on sprayed maize sprouts, 4 days after infestation, read-out: effect in at least one of the two categories (mortality or growth inhibition)
Description: Example B1: Activity Against Diabrotica balteata (Corn Root Worm)
Maize sprouts placed onto an agar layer in 24-well microtiter plates were treated with aqueous test solutions prepared from 10′000 ppm DMSO stock solutions by spraying. After drying, the plates were infested with L2 larvae (6 to 10 per well). The samples were assessed for mortality and growth inhibition in comparison to untreated samples 4 days after infestation.

[2] = tested on: Euschistus heros (Neotropical Brown Stink Bug); assay: Example B2: Activity against Euschistus heros (neotropical brown stink bug), sprayed soybean leaves; format: in vivo; conditions: 120 h, application rate 200 ppm, N2 nymphs on sprayed soybean leaves, 5 days after infestation, read-out: effect in at least one of the two categories (mortality or growth inhibition)
Description: Example B2: Activity Against Euschistus heros (Neotropical Brown Stink Bug)
Soybean leaves on agar in 24-well microtiter plates were sprayed with aqueous test solutions prepared from 10′000 ppm DMSO stock solutions. After drying the leaves were infested with N2 nymphs. The samples were assessed for mortality and growth inhibition in comparison to untreated samples 5 days after infestation.

[3] = tested on: Plutella xylostella (Diamond Back Moth); assay: Example B3: Activity against Plutella xylostella (diamond back moth), artificial diet; format: in vivo; conditions: 192 h, application rate 200 ppm, eggs on artificial diet, 8 days after infestation, read-out: effect in at least one of the two categories (mortality or growth inhibition)
Description: Example B3: Activity Against Plutella xylostella (Diamond Back Moth)
24-well microtiter plates with artificial diet were treated with aqueous test solutions prepared from 10′000 ppm DMSO stock solutions by pipetting. After drying, Plutella eggs were pipetted through a plastic stencil onto a gel blotting paper and the plate was closed with it. The samples were assessed for mortality and growth inhibition in comparison to untreated samples 8 days after infestation. The following compounds gave an effect of at least 80% in at least one of the two categories (mortality or growth inhibition) at an application rate of 200 ppm: P2, P4, P5, P6, P8, P9, P10, P11, P12, P14, P15, P16, P17, P18, P19, P20, P21, P22, P23, P24, P25, P26, P27, P28, P29, P30, P31, P32, P33, P34, P35, P36, P38, P39, P40, P42, P45, P46, P47, P49, P50, P51, P52.

[4] = tested on: Myzus persicae (Green Peach Aphid); assay: whole plant or invertebrate; format: in vivo; conditions: foliar, 144 h, application rate 200 ppm, sprayed sunflower leaf discs, mixed ages, 6 days after infestation
Description: Example B4: Activity Against Myzus persicae (Green Peach Aphid) Feeding/Contact Activity
Sunflower leaf discs were placed onto agar in a 24-well microtiter plate and sprayed with aqueous test solutions prepared from 10′000 ppm DMSO stock solutions. After drying, the leaf discs were infested with an aphid population of mixed ages. The samples were assessed for mortality 6 days after infestation.

[5] = tested on: Myzus persicae (Green Peach Aphid); assay: Example B5: Activity against Myzus persicae (green peach aphid), systemic activity; format: in vivo; conditions: 144 h, test rate 24 ppm, roots of pea seedlings in test solution, mixed ages, 6 days
Description: Example B5: Activity Against Myzus persicae (Green Peach Aphid) Systemic Activity
Roots of pea seedlings infested with an aphid population of mixed ages were placed directly into aqueous test solutions prepared from 10′000 DMSO stock solutions. The samples were assessed for mortality 6 days after placing seedlings into test solutions.

[6] = tested on: Spodoptera littoralis (Egyptian Cotton Leaf Worm); assay: Example B6: Activity against Spodoptera littoralis (Egyptian cotton leaf worm); format: in vivo; conditions: foliar, 72 h, application rate 200 ppm, L1 larvae on sprayed cotton leaf discs, 3 days after infestation, read-out: control (mortality, anti-feeding effect or growth inhibition)
Description: Example B6: Activity Against Spodoptera littoralis (Egyptian Cotton Leaf Worm)
Cotton leaf discs were placed onto agar in 24-well microtiter plates and sprayed with aqueous test solutions prepared from 10′000 ppm DMSO stock solutions. After drying the leaf discs were infested with five L1 larvae. The samples were assessed for mortality, anti-feeding effect, and growth inhibition in comparison to untreated samples 3 days after infestation. Control of Spodoptera littoralis by a test sample is given when at least one of the categories mortality, anti-feedant effect, and growth inhibition is higher than the untreated sample.

[7] = tested on: Bemisia tabaci (Cotton White Fly); assay: Example B7: Activity against Bemisia tabaci (cotton white fly); format: in vivo; conditions: foliar, 144 h, application rate 200 ppm, adult white flies on sprayed cotton leaf discs, 6 days after incubation
Description: Example B7: Activity Against Bemisia tabaci (Cotton White Fly)
Cotton leaf discs were placed on agar in 24-well microtiter plates and sprayed with aqueous test solutions prepared from 10′000 ppm DMSO stock solutions. After drying the leaf discs were infested with adult white flies. The samples were checked for mortality 6 days after incubation.

[8] = tested on: Frankliniella occidentalis (Western Flower Thrips); assay: Example B8: Activity against Frankliniella occidentalis (western flower thrips); format: in vivo; conditions: foliar, 168 h, application rate 200 ppm, sprayed sunflower leaf discs, mixed ages, 7 days after infestation
Description: Example B8: Activity Against Frankliniella occidentalis (Western Flower Thrips)
Sunflower leaf discs were placed on agar in 24-well microtiter plates and sprayed with aqueous test solutions prepared from […] stock solutions. After drying the leaf discs were infested with a Frankliniella population of mixed ages. The samples were assessed for mortality 7 days after infestation.

| SMILES | percent effect (mortality or growth inhibition) at 200 ppm [1] [%] | percent effect (mortality or growth inhibition) at 200 ppm [2] [%] | percent effect (mortality or growth inhibition) at 200 ppm [3] [%] | mortality at 200 ppm [4] [%] | mortality at 24 ppm [5] [%] | percent control (mortality, anti-feedant effect or growth inhibition) at 200 ppm [6] [%] | mortality at 200 ppm [7] [%] | mortality at 200 ppm [8] [%] | melting point [°C] |
| --- | --- | --- | --- | --- | --- | --- | --- | --- | --- |
| CCS(=O)(=O)c1cc(N(C)C(C)=O)cnc1-c1cc2cnn(CC(F)(F)C(F)(F)F)c2cn1 [Compound P2, N-[5-ethylsulfonyl-6-[1-(2,2,3,3,3-pentafluoropropyl)pyrazolo[3,4-c]pyridin-5-yl]-3-pyridyl]-N-methyl-acetamide] | ≥ 80 | ≥ 80 | ≥ 80 | ≥ 80 | ≥ 80 | ≥ 80 | – | – | – |
| CCS(=O)(=O)c1cccnc1-c1cc2cnn(CC(F)(F)C(F)(F)F)c2cn1 [Compound P4, 5-(3-ethylsulfonyl-2-pyridyl)-1-(2,2,3,3,3-pentafluoropropyl)pyrazolo[3,4-c]pyridine] | ≥ 80 | ≥ 80 | ≥ 80 | ≥ 80 | ≥ 80 | ≥ 80 | – | – | – |
| CCS(=O)(=O)c1cc(C(C)(C)C#N)cnc1-c1cc2cnn(CC(F)(F)C(F)(F)F)c2cn1 [Compound P5, 2-[5-ethylsulfonyl-6-[1-(2,2,3,3,3-pentafluoropropyl)pyrazolo[3,4-c]pyridin-5-yl]-3-pyridyl]-2-methyl-propanenitrile] | ≥ 80 | ≥ 80 | ≥ 80 | ≥ 80 | ≥ 80 | ≥ 80 | ≥ 80 | – | – |
| CCSc1cc(C(C)(C)C#N)cnc1-c1cc2cnn(CC(F)(F)C(F)(F)F)c2cn1 [Compound P6, 2-[5-ethylsulfanyl-6-[1-(2,2,3,3,3-pentafluoropropyl)pyrazolo[3,4-c]pyridin-5-yl]-3-pyridyl]-2-methyl-propanenitrile] | ≥ 80 | ≥ 80 | ≥ 80 | ≥ 80 | – | ≥ 80 | ≥ 80 | ≥ 80 | – |
| CCSc1cc(C2(C#N)CC2)cnc1-c1cc2cnn(CC(F)(F)C(F)(F)F)c2cn1 [Compound P10, 1-[5-ethylsulfanyl-6-[1-(2,2,3,3,3-pentafluoropropyl)pyrazolo[3,4-c]pyridin-5-yl]-3-pyridyl]cyclopropanecarbonitrile] | ≥ 80 | ≥ 80 | ≥ 80 | – | – | ≥ 80 | – | ≥ 80 | – |
| CCS(=O)(=O)c1cc(C2(C#N)CC2)cnc1-c1cc2cnn(CC(F)(F)C(F)(F)F)c2cn1 [Compound P11, 1-[5-ethylsulfonyl-6-[1-(2,2,3,3,3-pentafluoropropyl)pyrazolo[3,4-c]pyridin-5-yl]-3-pyridyl]cyclopropanecarbonitrile] | ≥ 80 | ≥ 80 | ≥ 80 | ≥ 80 | – | ≥ 80 | ≥ 80 | ≥ 80 | – |
| CCS(=O)(=O)c1ccc(N(C)C(C)=O)nc1-c1cc2cnn(CC(F)(F)C(F)(F)F)c2cn1 [Compound P12, N-[5-ethylsulfonyl-6-[1-(2,2,3,3,3-pentafluoropropyl)pyrazolo[3,4-c]pyridin-5-yl]-2-pyridyl]-N-methyl-acetamide] | ≥ 80 | ≥ 80 | ≥ 80 | ≥ 80 | ≥ 80 | ≥ 80 | – | – | – |
| CCS(=O)(=O)c1ccc(N(C)C(=O)NC)nc1-c1cc2ccn(CC(F)(F)C(F)(F)F)c2cn1 [Compound P13, 1-[5-ethylsulfonyl-6-[1-(2,2,3,3,3-pentafluoropropyl)pyrrolo[2,3-c]pyridin-5-yl]-2-pyridyl]-1,3-dimethyl-urea] | – | – | – | – | – | – | – | – | 214 to 217 |
| CCS(=O)(=O)c1ccc(-c2ncccn2)nc1-c1cc2cnn(CC(F)(F)C(F)(F)F)c2cn1 [Compound P25, 5-(3-ethylsulfonyl-6-pyrimidin-2-yl-2-pyridyl)-1-(2,2,3,3,3-pentafluoropropyl) pyrazolo[3,4-c]pyridine] | ≥ 80 | ≥ 80 | ≥ 80 | ≥ 80 | ≥ 80 | ≥ 80 | – | ≥ 80 | – |
| CCS(=O)(=O)c1cc(C(F)(F)F)cnc1-c1cc2cnn(CC(F)(F)C(F)(F)F)c2cn1 [Compound P31, 5-[3-ethylsulfonyl-5-(trifluoromethyl)-2-pyridyl]-1-(2,2,3,3,3-pentafluoropropyl) pyrazolo[3,4-c] pyridine] | ≥ 80 | ≥ 80 | ≥ 80 | – | – | ≥ 80 | ≥ 80 | – | – |
| CCS(=O)(=O)c1cc(C2(C#N)CC2)cnc1-c1cc2ncn(CC(F)(F)C(F)(F)F)c2cn1 [Compound P34, 1-[5-ethylsulfonyl-6-[3-(2,2,3,3,3-pentafluoropropyl)imidazo [4,5-c]pyridin-6-yl]-3-pyridyl]cyclopropane-carbonitrile] | ≥ 80 | ≥ 80 | ≥ 80 | ≥ 80 | ≥ 80 | – | – | – | – |
| CCS(=O)(=O)c1cc(C(C)(C)C#N)cnc1-c1cc2ncn(CC(F)(F)C(F)(F)F)c2cn1 [Compound P40, 2-[5-ethylsulfonyl-6-[3-(2,2,3,3,3-pentafluoropropyl)imidazo[4,5-c]pyridin-6-yl]-3-pyridyl]-2-methyl-propanenitrile] | ≥ 80 | ≥ 80 | ≥ 80 | ≥ 80 | ≥ 80 | ≥ 80 | – | – | – |
| CCSc1cc(C(C)(C)C#N)cnc1-c1cc2ncn(CC(F)(F)C(F)(F)F)c2cn1 [Compound P47, 2-[5-ethylsulfanyl-6-[3-(2,2,3,3,3-pentafluoropropyl)imidazo[4,5-c]pyridin-6-yl]-3-pyridyl]-2-methyl-propanenitrile] | ≥ 80 | ≥ 80 | ≥ 80 | – | – | – | – | ≥ 80 | – |
